# Laboratory results from US20240269106A1, “SMALL MOLECULE MODULATOR TARGETING A RARE HISTONE MODIFICATION REGULATING ADIPOGENESIS AND PHARMACEUTICAL FORMULATION THEREOF” (COUNCIL OF SCIENTIFIC AND INDUSTRIAL RESEARCH AN INDIAN …, priority 2021, published 2024).
# Experiment: Detection of compound in mice liver by Q-TOF LC/MS
# Assay type: in vivo
# Conditions: LC-ESI-MS of liver metabolites
# Method: The liver samples of mice treated with compound I were homogenized in a solution consisting of 50% methanol and 50% water and then snap frozen in liquid nitrogen followed by lyophilization. Profiling of intracellular metabolites was performed on an agilent 1290 Infinity LC system coupled to Agilent 6545 Accurate Mass Quadrupole Time of Flight (QTOF) with Agilent Jet Stream Thermal Gradient Technology. The UPLC system was assembled with a Diode array detector (DAD) and autosampler. The Chromatographic separation was achieved on Agilent ZORBAX SB-C18 column (2.1×100 mm, 1.8 μm) as stationary phase. […]
# The ESI spectra of pure solution of compound of Formula I was taken as reference (FIG. 14A). When LC-ESI-MS analysis of metabolites of compound treated mice, liver was performed, the corresponding protonated molecular ion species was detected in the ESI spectra (FIG. 14B).
structure (smiles),measurement,value
COc1ccc(C(=O)C2=C3OC(C)(C)[C@@H](CC=C(C)C)C[C@@]34C[C@@H](CC=C(C)C)C(C)(C)[C@@](CC=C(C)C)(C2=O)C4=O)cc1OC [Compound X],detection in mice liver (bioavailability),detected in its intact form
